Laboratory results taken from patent US20150336889A1, “INDOLE DERIVATIVES, PHARMACEUTICAL COMPOSITIONS CONTAINING SUCH INDOLES AND THEIR USE AS DNA METHYLATION MODULATORS” (IKERCHEM, S.L., priority 2012, published 2015).

How the values were obtained:
Assay type in all cases: cell-based
143B = assay: Cancer cell growth inhibition, 143B; conditions: Homo sapiens, Osteosarcoma, cell viability, 72 h
Procedure: (§1) Cell culture-based assays were used to evaluate the ability of compounds of the invention to inhibit cancer cell growth inhibition.
(§2) Cells were obtained from the American Type Culture Collection (ATCC) and European Collection of Cell Cultures (ECACC).
(§3) Cells were thawed in their appropriate media plus supplements (see table below). Cells were passaged at confluence by washing once in HBSS cation-free followed by a 3 minutes incubation with trypsin ([0.5 μg/ml]/EDTA [0.2 μg/ml]) (Gibco-BRL, 15400054) solution in HBSS at 37° C. (except non-adherent cell lines), and transferred to their appropriate media plus supplements. Prior to seeding at defined cell concentration, cells were recovered in medium, centrifuged and taken up in medium, and counted.
(§4) Cells were plated at 3000/5000/10000 cells/well in 100 μl media in tissue culture 96 well plates (Cultek). After 24 h, media was supplemented by 100 μl/well of diluted IPDNs at 100 μM.
(§5) The Hexosaminidase assay was used for the adherent cell lines, whereas the AlamarBlue® assay was used for the non-adherent cell lines.
(§6) Dose-response curves were generated by serial dilutions (1:1) of the compounds. […] Reagent blanks, containing media plus colorimetric reagent without cells were run on each plate. Blank values were subtracted from test values and were routinely 5-10% of uninhibited control values. Plates were incubated 72 h, and living cell number was determined by AlamarBlue® and Hexosaminidase test. The advantages of using those assays are that both can be done in the same microwell plate. AlamarBlue® assay: plates were incubated 72 h and living cell number was determined by AlamarBlue (Biosource DAL1100). After 4 h incubation at 37° C., relative fluorescent intensity, which correlates with the number of living cells, was read in a Cytofluor plate reader (Millipore) at 535/590 nm (Excitation/emission). The hexosaminidase activity was measured according to the following protocol: the media was removed and cells were washed once with PBS.
(§7) Data analysis was done by calculating the percentage of cell viability normalized in front of negative control values, which were considered as a 100%. The curve was adjusted using a sigmoidal dose-response (variable slope) equation and EC50 values were obtained from the equation
(§8) where, X is the logarithm of concentration. Y is the response. Bottom is the Y value at the bottom plateau Top is the Y value at the top plateau LogEC50 is the X value when the response is halfway between Bottom and Top. With different kinds of variables, this variable is sometimes called ED50 (effective dose, 50%), or IC50 (inhibitory concentration, 50%, used when the curve goes downhill).

RWPI = assay: Cancer cell growth inhibition, RWPI; conditions: Pancreatic, cell viability, 72 h
Procedure: as §1, §2
(§9) Cells were thawed in their appropriate media plus supplements (see table below). Cells were passaged at confluence by washing once in HBSS cation-free followed by a 3 minutes incubation with trypsin ([0.5 μg/ml]/EDTA [0.2 μg/ml]) (Gibco-BRL, 15400054) solution in HBSS at 37° C. (except non-adherent cell lines), and transferred to their appropriate media plus supplements. Prior to seeding at defined cell concentration, cells were recovered in medium, centrifuged and taken up in medium, and counted. […]
(§10) Dose-response curves were generated by serial dilutions (1:1) of the compounds. […] Plates were incubated 72 h, and living cell number was determined by AlamarBlue® and Hexosaminidase test. […] AlamarBlue® assay: plates were incubated 72 h and living cell number was determined by AlamarBlue (Biosource DAL1100). After 4 h incubation at 37° C., relative fluorescent intensity, which correlates with the number of living cells, was read in a Cytofluor plate reader (Millipore) at 535/590 nm (Excitation/emission). The hexosaminidase activity was measured according to the following protocol: the media was removed and cells were washed once with PBS. […]

OVCAR-3 = assay: Cancer cell growth inhibition, OVCAR-3; conditions: Homo sapiens; Ovarian, OVCAR-3, cell viability, 72 h
Procedure: as §1, §2, §9, §10

SK-OV-3 = assay: Cancer cell growth inhibition, SK-OV-3; conditions: Homo sapiens; Ovarian, SK-OV-3, cell viability, 72 h
Procedure: as §1, §2, §3, §4, §5
as §6, with “PBS. […]” for “PBS.”

LoVo = assay: Cancer cell growth inhibition, LoVo; conditions: Homo sapiens, Colorectal, cell viability, 72 h
Procedure: as §1, §2, §3, §4, §5
as §6, with “PBS. […]” for “PBS.”

NCI-H1650 = assay: Cancer cell growth inhibition, NCI-H1650; conditions: Homo sapiens; Lung, NCI-H1650, cell viability, 72 h
Procedure: as §1, §2, §3, §4, §5
as §6, with “PBS. […]” for “PBS.”

SK-MEL-28 = assay: Cancer cell growth inhibition, SK-MEL-28; conditions: Homo sapiens; Melanoma, SK-MEL-28, cell viability, 72 h
Procedure: as §1, §2, §3, §4, §5
as §6, with “PBS. […]” for “PBS.”

NCI-H358 = assay: Cancer cell growth inhibition, NCI-H358; conditions: Homo sapiens; Lung, NCI-H358, cell viability, 72 h
How it was run: (§11)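 Cells seeded at 3000/5000/10000 per well and dosed after 24 h with 1:1 serial compound dilutions, then incubated 72 h. Viable cells were read by hexosaminidase activity for adherent lines and by AlamarBlue fluorescence (4 h, 37 °C, 535/590 nm) for non-adherent lines. EC50 came from a variable-slope sigmoidal fit of blank-subtracted viability relative to untreated controls.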

HT-1080 = assay: Cancer cell growth inhibition, HT-1080; conditions: Homo sapiens; HT-1080, cell viability, 72 h
Procedure: as §1, §2, §3, §4, §5, §6, §7, §8

Daoy = assay: Cancer cell growth inhibition, Daoy; conditions: Homo sapiens, Brain, cell viability, 72 h
How it was run: as §11

HeLa = assay: Cancer cell growth inhibition, HeLa; conditions: Homo sapiens, Cervical, cell viability, 72 h
Procedure: as §1, §2, §3, §4, §5
as §6, with “PBS. […]” for “PBS.”

SK-BR-3 = assay: Cancer cell growth inhibition, SK-BR-3; conditions: Homo sapiens; Breast, SK-BR-3, cell viability, 72 h
Procedure: as §1, §2, §3, §4, §5
as §6, with “PBS. […]” for “PBS.”

T47D = assay: Cancer cell growth inhibition, T47D; conditions: Homo sapiens, Breast, cell viability, 72 h
Procedure: as §1, §2, §3, §4, §5, §6, §7, §8

HT-29 = assay: Cancer cell growth inhibition, HT-29; conditions: Homo sapiens; Colorectal, HT-29, cell viability, 72 h
Procedure: as §1, §2, §3, §4, §5
as §6, with “PBS. […]” for “PBS.”

A-431 = assay: Cancer cell growth inhibition, A-431; conditions: Homo sapiens; Epidermoid, A-431, cell viability, 72 h
Procedure: as §1, §2, §3, §4, §5, §6, §7, §8

MiaPaCa-2 = assay: Cancer cell growth inhibition, MiaPaCa-2; conditions: Homo sapiens, MIA PaCa-2; Pancreatic, MiaPaCa-2, cell viability, 72 h
How it was run: as §11

DU-145 = assay: Cancer cell growth inhibition, DU-145; conditions: Homo sapiens; Prostate, DU-145, cell viability, 72 h
Procedure: as §1, §2, §3, §4, §5
as §6, with “PBS. […]” for “PBS.”

RPMI-8226 = assay: Cancer cell growth inhibition, RPMI-8226; conditions: Homo sapiens; Multiple Myelome, RPMI-8226, cell viability, 72 h
Procedure: as §1, §2, §3, §4, §5, §6, §7, §8

HepG2 = assay: Cancer cell growth inhibition, HepG2; conditions: Homo sapiens; Liver, HepG2, cell viability, 72 h
Procedure: as §1, §2, §9, §10

PC3 = assay: Cancer cell growth inhibition, PC3; conditions: Homo sapiens, PC-3; Prostate, PC3, cell viability, 72 h
Procedure: as §1, §2, §3, §4, §5, §6, §7, §8

A-549 = assay: Cancer cell growth inhibition, A-549; conditions: Homo sapiens, A549; Lung, A-549, cell viability, 72 h
Procedure: as §1, §2, §3, §4, §5, §6, §7, §8

BxPC3 = assay: Cancer cell growth inhibition, BxPC3; conditions: Homo sapiens, BXPC-3; Pancreatic, BxPC3, cell viability, 72 h
Procedure: as §1, §2, §3, §4, §5
as §6, with “PBS. […]” for “PBS.”

K562 = assay: Cancer cell growth inhibition, K562; conditions: Homo sapiens; Hematologic, K562, cell viability, 72 h
Procedure: as §1, §2, §3, §4, §5
as §6, with “PBS. […]” for “PBS.”

Colo205 = assay: Cancer cell growth inhibition, Colo205; conditions: Homo sapiens, COLO 205; Colorectal, Colo205, cell viability, 72 h
Procedure: as §1, §2, §3, §4, §5
as §6, with “PBS. […]” for “PBS.”

LnCaP = assay: Cancer cell growth inhibition, LnCaP; conditions: Homo sapiens, Prostate, cell viability, 72 h
Procedure: as §1, §2, §3, §4, §5, §6, §7, §8

RAMOS = assay: Cancer cell growth inhibition, RAMOS; conditions: Homo sapiens, Hematologic, cell viability, 72 h
Procedure: as §1, §2, §3, §4, §5, §6, §7, §8

SMILES	EC50 (143B) [µM]	EC50 (RWPI) [µM]	EC50 (OVCAR-3) [µM]	EC50 (SK-OV-3) [µM]	EC50 (LoVo) [µM]	EC50 (NCI-H1650) [µM]	EC50 (SK-MEL-28) [µM]	EC50 (NCI-H358) [µM]	EC50 (HT-1080) [µM]	EC50 (Daoy) [µM]	EC50 (HeLa) [µM]	EC50 (SK-BR-3) [µM]	EC50 (T47D) [µM]	EC50 (HT-29) [µM]	EC50 (A-431) [µM]	EC50 (MiaPaCa-2) [µM]	EC50 (DU-145) [µM]	EC50 (RPMI-8226) [µM]	EC50 (HepG2) [µM]	EC50 (PC3) [µM]	further results
COc1cc(OC)c2c(-c3ccc(O)cc3)cn(CC(=O)c3ccc(O)cc3)c2c1 [Example 6, 1-(4-hydroxyphenyl)-2-[3-(4-hydroxyphenyl)-4,6-dimethoxy-1H-indol-1-yl]ethanone]	19	25	7.2	4.1	12	11	4.8	7.3	9.7	4.2	6.9	3.8	11	11	11	5.5	16	6.4	19	51	EC50 (A-549): 11 µM; EC50 (BxPC3): 15 µM; EC50 (K562): 13 µM; EC50 (Colo205): 16 µM; EC50 (LnCaP): 4.8 µM; EC50 (RAMOS): 6.6 µM
O=C(Cn1cc(-c2ccc(O)cc2)c2c(F)cc(F)cc21)c1ccc(O)cc1 [Example 16, 2-[4,6-difluoro-3-(4-hydroxyphenyl)-1H-indol-1-yl]-1-(4-hydroxyphenyl) ethanone]	31	46	47	44	50	76	59	23	52	50	68	59	31	66	66	61	65	65	44	83	EC50 (A-549): 39 µM; EC50 (BxPC3): 34 µM; EC50 (K562): 51 µM; EC50 (Colo205): 31 µM; EC50 (LnCaP): 43 µM; EC50 (RAMOS): 35 µM
